#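 1) Cells in 96-well plates. 2) Compound, 48 h, 5 concentrations. 3) Linear interpolation between surrounding doses. 4) Unreached endpoint = highest concentration. At the GI50, growth is halved.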 The source made the active and inactive calls. Cut-off read from the data, not from the text of the source: active = GI50 up to about 1.1 µM and inactive = higher.
# Legend:
# Test in all cases: NCI-60 cell line screen, 48 h
# [1] = tested on: DU-145
# [2] = tested on: MDA-N
# [3] = tested on: SNB-75
# [4] = tested on: ACHN
# [5] = tested on: KM12
# [6] = tested on: OVCAR-4
# [7] = tested on: IGROV-1
# [8] = tested on: SR
# [9] = tested on: M14
# [10] = tested on: UACC-62
# [11] = tested on: NCI-H522
# [12] = tested on: 786-0
# [13] = tested on: OVCAR-3
# [14] = tested on: NCI-H23
# [15] = tested on: HCT-15
# [16] = tested on: UACC-257
# [17] = tested on: PC-3
# [18] = tested on: MCF7
# [19] = tested on: LXFL 529
# [20] = tested on: DMS-114
Compound,GI50 [1],GI50 [2],GI50 [3],GI50 [4],GI50 [5],GI50 [6],GI50 [7],GI50 [8],GI50 [9],GI50 [10],GI50 [11],GI50 [12],GI50 [13],GI50 [14],GI50 [15],GI50 [16],GI50 [17],GI50 [18],GI50 [19],GI50 [20]
COc1ccc2c(c1)CCC(CN1CCN(CCOC(c3ccccc3)c3ccccc3)CC1)C2O (stereo not drawn),20.1 µM (inactive),14.3 µM (inactive),17.9 µM (inactive),12.6 µM (inactive),18.3 µM (inactive),15.9 µM (inactive),15.4 µM (inactive),16.7 µM (inactive),14.2 µM (inactive),13.5 µM (inactive),16.6 µM (inactive),16.6 µM (inactive),15.3 µM (inactive),15.1 µM (inactive),10.8 µM,13 µM (inactive),13.5 µM (inactive),18.9 µM (inactive),–,–
COc1ccc(/C=N/n2cnc3[nH]c(C)c(Cc4ccccc4)c3c2=N)cc1,> 100 µM (inactive),> 100 µM (inactive),71.9 µM (inactive),97.1 µM (inactive),> 100 µM (inactive),> 100 µM (inactive),39.7 µM (inactive),> 100 µM (inactive),> 100 µM (inactive),> 100 µM (inactive),65 µM (inactive),> 100 µM (inactive),> 100 µM (inactive),53.1 µM (inactive),> 100 µM,> 100 µM (inactive),> 100 µM (inactive),39.1 µM (inactive),–,–
CC1=C(C(=O)Nc2ccccc2)C(c2ccc3c(c2)OCO3)C(C(=O)Nc2ccccc2)=C(C)N1,–,–,–,33.7 µM (inactive),28.5 µM (inactive),21.6 µM (inactive),60.7 µM (inactive),–,33.7 µM (inactive),30.1 µM (inactive),17 µM (inactive),36.3 µM (inactive),22.7 µM (inactive),37.2 µM (inactive),33 µM,40.9 µM (inactive),–,–,20 µM (inactive),26.2 µM (inactive)
O=P(O)(O)CN1CCN(CP(=O)(O)O)CCN(CP(=O)(O)O)CCN(CP(=O)(O)O)CC1,> 100 µM (inactive),79.4 µM (inactive),> 100 µM (inactive),> 100 µM (inactive),41.8 µM (inactive),> 100 µM (inactive),> 100 µM (inactive),10.5 µM (inactive),> 100 µM (inactive),46 µM (inactive),90.4 µM (inactive),> 100 µM (inactive),> 100 µM (inactive),55.6 µM (inactive),27.8 µM,> 100 µM (inactive),87.3 µM (inactive),53.6 µM (inactive),–,–
Nc1c(/N=N/c2ccc(-c3ccc(/N=N/c4c(O)ccc5cc(S(=O)(=O)O)cc(S(=O)(=O)O)c45)cc3)cc2)c(S(=O)(=O)O)cc2cc(S(=O)(=O)O)c(/N=N/c3ccccc3)c(O)c12,–,–,35.7 µM (inactive),–,> 100 µM (inactive),> 100 µM (inactive),> 100 µM (inactive),–,–,> 100 µM (inactive),> 100 µM (inactive),–,> 100 µM (inactive),> 96.8 µM (inactive),> 100 µM,> 100 µM (inactive),–,> 100 µM (inactive),–,> 100 µM (inactive)
CC1(C)C[C@H]2C=C(C=O)[C@]34C[C@]3(C(=O)OC4O)[C@H]2C1 (stereo partly drawn),2.22 µM (inactive),1.37 µM (inactive),1.91 µM (inactive),1.53 µM (inactive),1.94 µM (inactive),2.55 µM (inactive),3.05 µM (inactive),2.56 µM (inactive),1.44 µM (inactive),1.97 µM (inactive),0.443 µM (active),–,2.84 µM (inactive),1.66 µM (inactive),1.43 µM,2.11 µM (inactive),2.84 µM (inactive),1.38 µM (inactive),–,–
COCCOc1nc(-c2ccccc2)nc2ccccc12,54.7 µM (inactive),32.5 µM (inactive),60.8 µM (inactive),44.1 µM (inactive),30 µM (inactive),37.3 µM (inactive),98.2 µM (inactive),19.7 µM (inactive),27.7 µM (inactive),20.7 µM (inactive),35.3 µM (inactive),–,95.1 µM (inactive),61.8 µM (inactive),19.2 µM,> 100 µM (inactive),34.5 µM (inactive),37.2 µM (inactive),–,–
O=C(O)CN1C(=O)OC(c2ccccc2)C1=O (stereo not drawn),> 100 µM (inactive),> 100 µM (inactive),> 100 µM (inactive),> 100 µM (inactive),> 100 µM (inactive),> 100 µM (inactive),> 100 µM (inactive),> 100 µM (inactive),> 100 µM (inactive),> 100 µM (inactive),> 100 µM (inactive),> 100 µM (inactive),> 100 µM (inactive),> 100 µM (inactive),> 100 µM,> 100 µM (inactive),> 100 µM (inactive),> 100 µM (inactive),–,–
OCc1ccccc1C1CSCSC1,–,–,> 100 µM (inactive),> 100 µM (inactive),> 100 µM (inactive),> 100 µM (inactive),–,–,–,> 100 µM (inactive),> 100 µM (inactive),–,> 100 µM (inactive),–,> 100 µM,> 100 µM (inactive),–,–,> 100 µM (inactive),> 100 µM (inactive)

# Source: ChEMBL document CHEMBL1201862, “PubChem BioAssay data set” (2004)
